What was measured:
Bos taurus = organism: Bos taurus; experiment: Ratio of IC50 of chlorpromazine to IC50 of compound for bovine brain PDE1
[1] = Inhibition of bovine brain PDE1; design: species or system Bos taurus

Ratio IC50 (Bos taurus) | IC50 [1] | SMILES
0.2 | 62.3 µM | CC1(C)c2[nH]c3ccc(Cl)cc3c2C[C@@]23NC(=O)[C@]4(CCCN4C2=O)C[C@H]13
0.4 | 27.5 µM | CC1(C)c2[nH]c3ccc(Cl)c(Cl)c3c2C[C@@]23NC[C@]4(CCCN4C2=O)C[C@H]13
0.1 | 81.2 µM | CC1(C)c2[nH]c3ccc(Cl)c(Cl)c3c2C[C@@]23CN4CCC[C@]4(C[C@H]12)C(=O)N3
0.5 | 35.7 µM | CC1(C)c2[nH]c3ccccc3c2C[C@@]23CN4CCC[C@]4(C[C@@H]12)C(=O)N3
0.2 | 45.4 µM | CC1(C)c2[nH]c3ccc(Cl)c(Cl)c3c2C[C@@]23NC(=O)[C@]4(CCCN4C2=O)C[C@H]13
0.2 | 61.8 µM | CC1(C)c2[nH]c3cc(Cl)ccc3c2C[C@@]23NC(=O)[C@]4(CCCN4C2=O)C[C@@H]13
0.1 | 151 µM | CC1(C)c2[nH]c3ccccc3c2C[C@@]23NC(=O)[C@]4(CCCN4C2=O)C[C@@H]13
0.2 | 60.3 µM | CC1(C)c2[nH]c3ccc(Cl)cc3c2C[C@@]23CN4CCC[C@]4(C[C@@H]12)C(=O)N3
0.5 | 33.9 µM | CC1(C)c2[nH]c3cc(Cl)c(Cl)cc3c2C[C@@]23NC(=O)[C@]4(CCCN4C2=O)C[C@H]13
0.9 | 12 µM | CC1(C)c2[nH]c3cc(Cl)c(Cl)cc3c2C[C@@]23NC[C@]4(CCCN4C2=O)C[C@H]13
0.4 | 31.5 µM | CC1(C)c2[nH]c3ccc(Cl)cc3c2C[C@@]23NC(=O)[C@]4(CCCN4C2=O)C[C@@H]13
0.9 | 18.6 µM | CC1(C)c2[nH]c3cc(Cl)c(Cl)cc3c2C[C@@]23NC(=O)[C@]4(CCCN4C2=O)C[C@@H]13
0.3 | 42.8 µM | CC1(C)c2[nH]c3cc(Cl)ccc3c2C[C@@]23NC(=O)[C@]4(CCCN4C2=O)C[C@H]13
0.7 | 23.6 µM | CC1(C)c2[nH]c3ccccc3c2C[C@@]23NC(=O)[C@]4(CCCN4C2=O)C[C@H]13

SMILES | Ratio IC50 (Bos taurus) | IC50 [1]
CC1(C)c2[nH]c3cc(Cl)ccc3c2C[C@@]23CN4CCC[C@]4(C[C@@H]12)C(=O)N3 [MALBRANCHEAMIDE B] | 0.1 | 183 µM
CC1(C)c2[nH]c3cc(Cl)c(Cl)cc3c2CC23CN4CCCC4(CC21)C(=O)N3 (racemic) | 1.1 | 16 µM
CC1(C)c2[nH]c3cc(Cl)ccc3c2CC23CN4CCCC4(CC21)C(=O)N3 (racemic) [D,L-MALBRANCHEAMIDE B] | 0.3 | 42.9 µM
CC1(C)c2[nH]c3cc(Cl)c(Cl)cc3c2C[C@@]23CN4CCC[C@]4(C[C@@H]12)C(=O)N3 | 0.9 | 19.3 µM
CC1(C)c2[nH]c3cc(Cl)c(Cl)cc3c2C[C@@]23CN4CCC[C@]4(C[C@H]12)C(=O)N3 | 0.1 | 134 µM

Source: ChEMBL document CHEMBL1152178, “Calmodulin inhibitory activity of the malbrancheamides and various analogs” (Bioorg Med Chem Lett, 2008)
